Measured values as given in patent US20210333263A1, “REDOX ACTIVATABLE FLUORESCENT SENSORS” (The Board of Regents of the University of Texas System, priority 2016, published 2021).

Columns and labels:
A549 lung cancer cells = assay: High-throughput quantification of cytosolic delivery of qRAS-labeled protein on a plate reader; type: cell-based; details: cells pretreated with 50 μM NEM for 30 min, then JetPEI and OVA^qRAS
Description: A549 cancer cells were seeded into 96-well black plate at a density of 10,000 cells per well and incubated for 24 hr. The polymer solution (100 μg/mL) and qRAS-labeled protein (OVA^qRAS or IgG^qRAS, 25 μg/mL) were co-incubated with cells for 40 min at 37° C. The cells were washed twice with PBS (pH 7.4) and cultured in complete culture medium. The fluorescence of TMR and Cy5 were measured on a Tecan fluorescent plate reader at different times. At 24 hr, 5 mM DTT was added to cleave the intracellular disulphide bond and completely release the TMR signal. The excitation and emission settings: TMR: Ex: 545 nm with bandwidth 9 nm, Em: 595 nm with bandwidth 20 nm; Cy5: Ex: 640 nm with bandwidth 9 nm, Em: 690 nm with bandwidth 20 nm.
The activation percentage (%) of OVA^qRAS was calculated using the equation described below:
Activation (%)=(FTMR−F0)/(FTMR,DTT−F0)*100
where FTMR is the fluorescence intensity of TMR at different times, FTMR,DTT is the fluorescence intensity of TMR after the addition of DTT at 24 hr, and F0 is the background of TMR fluorescence.
For the N-ethylmaleimide (NEM) blocking experiments, the same procedures were used except that the cells were pretreated with 50 μM NEM for 30 min prior to the treatment with polymer and OVA^qRAS.

[1] = Fluorescence emission as a function of pH in PBS; type: physicochemical; details: pH 4.0 to 8.0, PBS, 6 hours
Description: Samples were excited at 390 nm.
FIG. 9 show the normalized fluorescence emission ratio of OVA^qRAS in PBS at different pH. OVA^qRAS (0.5 mg/mL) was incubated in PBS with different pH for 6 hours. The fluorescence emission spectra of TMR and Cy5 were recorded using a Hitachi fluorometer with excitation wavelength at 550 nm and 640 nm, respectively.

Molecule | fluorescence signals of OVA^qRAS after NEM pretreatment (A549 lung cancer cells) | TMR/Cy5 ratio across pH range [1]
CCN1C(=O)C=CC1=O [N-ethylmaleimide] | significant suppression of fluorescence signals | –
OVA^qRAS: Ovalbumin labeled by qRAS (conjugate, UniProt P01012 2-386, looked up, qRAS label) Ovalbumin: GSIGAASMEFCFDVFKELKVHHANENIFYCPIAIMSALAMVYLGAKDSTRTQINKVVRFDKLPGFGDSIEAQCGTSVNVHSSLRDILNQITKPNDVYSFSLASRLYAEERYPILPEYLQCVKELYRGGLEPINFQTAADQARELINSWVESQTNGIIRNVLQPSSVDSQTAMVLVNAIVFKGLWEKAFKDEDTQAMPFRVTEQESKPVQMMYQIGLFRVASMASEKMKILELPFASGTMSMLVLLPDEVSGLEQLESIINFEKLTEWTSSNVMEERKIKVYLPRMKMEEKYNLTSVLMAMGITDVFSSSANLSGISSAESLKISQAVHAAHAEINEAGREVVGSAEAGVDAASVSEEFRADHPFLFCIKHIATNAVLFFGRCVSP | – | remained constant
